Source: the supplement of paper PMC13380429

Tests used:
Conditions in all cases: 72 h
[1] = system: Vero E6; assay: relative viability EC50 (midpoint between 100% and the lowest measured viability); higher = less toxic
[2] = system: Calu-3; assay: as above
[3] = system: HepG2; assay: as above
[4] = system: Caco-2; assay: as above
[5] = system: U2OS; assay: as above
[6] = system: Vero E6; assay: drug sensitivity score (DSS) for viability; higher = more toxic; extreme values may be limits of the assay
[7] = system: Calu-3; assay: as above
[8] = system: HepG2; assay: as above
[9] = system: Caco-2; assay: as above
[10] = system: U2OS; assay: as above
[11] = system: Vero E6; assay: cell viability relative to DMSO; higher = less toxic
[12] = system: Calu-3; assay: as above
[13] = system: HepG2; assay: as above
[14] = system: Caco-2; assay: as above
[15] = system: U2OS; assay: as above

Structure (SMILES)	relative viability EC50 [1] [µM]	relative viability EC50 [2] [µM]	relative viability EC50 [3] [µM]	relative viability EC50 [4] [µM]	relative viability EC50 [5] [µM]	drug sensitivity score [6]	drug sensitivity score [7]	drug sensitivity score [8]	drug sensitivity score [9]	drug sensitivity score [10]	cell viability ([11]; 1 nM) [%]	cell viability ([11]; 10 nM) [%]	cell viability ([11]; 100 nM) [%]	cell viability ([11]; 1000 nM) [%]	cell viability ([11]; 10000 nM) [%]	cell viability ([12]; 1 nM) [%]	cell viability ([12]; 10 nM) [%]	cell viability ([12]; 100 nM) [%]	cell viability ([12]; 1000 nM) [%]	cell viability ([12]; 10000 nM) [%]	cell viability ([13]; 1 nM) [%]	cell viability ([13]; 10 nM) [%]	cell viability ([13]; 100 nM) [%]	cell viability ([13]; 1000 nM) [%]	cell viability ([13]; 10000 nM) [%]	cell viability ([14]; 1 nM) [%]	cell viability ([14]; 10 nM) [%]	cell viability ([14]; 100 nM) [%]	cell viability ([14]; 1000 nM) [%]	cell viability ([14]; 10000 nM) [%]	cell viability ([15]; 1 nM) [%]	cell viability ([15]; 10 nM) [%]	cell viability ([15]; 100 nM) [%]	cell viability ([15]; 1000 nM) [%]	cell viability ([15]; 10000 nM) [%]
CC(=O)N[C@@H](CC(=O)O)C(=O)N[C@@H](CCC(=O)O)C(=O)O [spaglumic-acid]	> 10	> 10	> 10	> 10	> 10	0	0	0	0	0	93.6	105	101	102	100	89.7	93.3	100	97.2	105	101	108	91.5	114	95.5	105	98.1	101	94.6	101	101	96.2	104	102	102
Nc1ccc(S(=O)(=O)Nc2ccc(Cl)nn2)cc1 [sulfachlorpyridazine]	> 10	> 10	> 10	> 10	> 10	0	0	0	0	0	97.8	95.3	101	97.1	103	109	91	98.5	104	109	93	105	105	108	107	99.6	93.4	94.8	106	106	98.8	93	100	102	103
CCCCC1(COC(=O)CCC(=O)O)C(=O)N(c2ccccc2)N(c2ccccc2)C1=O [suxibuzone]	> 10	> 10	> 10	> 10	> 10	0	0	0	0.2	0	110	103	103	92.4	102	104	101	95.2	99.2	95.6	122	99.5	102	103	94.6	87.1	104	94	91.8	84.1	96.4	101	96.5	102	95.5
O=C1OC(OC(=O)c2cccnc2Nc2cccc(C(F)(F)F)c2)c2ccccc21 (stereo not given) [talniflumate]	> 10	> 10	> 10	> 10	> 10	0	0	0	0	0	99	97.6	96.8	91	95.3	90.9	100	95	99.1	101	96.3	89.6	104	96.7	104	95.4	96.9	99.5	102	104	97.1	101	98.9	102	103
OB1OCc2cc(F)ccc21 [tavaborole]	> 10	> 10	> 10	> 10	> 10	0	0	0	0	0	94.6	96	87.7	92	112	101	105	96.4	104	105	92.9	105	103	102	105	95.6	87.4	91.7	88.3	97.3	99.2	97.3	100	97.2	102
Fc1ccccc1-c1nc2ccn(Cc3ccc(-c4ccc(C(F)(F)F)cc4C(F)(F)F)nn3)cc-2n1 [tegobuvir]	> 10	> 10	> 10	> 10	> 10	0	0	1.6	0	0	103	101	100	96.1	98.9	98.2	93.9	104	90.3	104	103	97.3	103	87.6	81.6	101	97.8	95	99.2	97.1	101	102	97.2	102	100
CC(C)(CO)c1cc2cc(NC(=O)C3(c4ccc5c(c4)OC(F)(F)O5)CC3)c(F)cc2n1C[C@@H](O)CO [tezacaftor]	> 10	> 10	> 10	> 10	> 10	0	0	0	0	0	90.3	98.2	92.4	94.6	93.1	101	96.8	104	104	106	113	102	94.1	97.2	96.3	101	98.1	96.3	89.1	98.8	99.2	96.7	101	97.7	93.2
Cc1ncc(C[n+]2csc(CCOP(=O)(O)OP(=O)(O)O)c2C)c(N)n1 [thiamine-pyrophosphate]	> 10	> 10	> 10	> 10	> 10	0	0	0	0	0	91.8	101	92.6	96.1	110	98.5	98	104	94	103	95.7	112	97.4	110	134	95.4	88.1	106	95.5	104	95.7	95.1	104	95.9	98.2
CC(C)(C)NC[C@H](O)COc1nsnc1N1CCOCC1 [timolol]	> 10	> 10	> 10	> 10	> 10	0	0	0	0	0	94.5	96.9	106	99.3	104	99.8	94.5	101	100	98.1	94.9	90	97.1	96.5	94.5	98.1	102	97	96.9	113	96.6	102	94.4	95.3	96.9
CCC(COC(=O)c1cc(OC)c(OC)c(OC)c1)(c1ccccc1)N(C)C (stereo not given) [trimebutine]	> 10	> 10	> 10	> 10	> 10	0	0	0	0	0	98.2	102	98.4	100	98.2	97.5	104	100	95.6	100	99.8	104	103	96.7	96.9	94.5	93.1	95.4	91.3	88.4	94.8	101	102	97.2	92.6
Cc1c(C)c2c(c(C)c1O)CCC(C)(COc1ccc(CC3SC(=O)NC3=O)cc1)O2 (stereo not given) [troglitazone]	> 10	> 10	> 10	> 10	> 10	0	0	0	0	0	101	92.2	101	95.9	101	112	98.2	110	98.4	108	87.7	103	104	90.6	98.5	89	116	106	93.4	106	95.2	100	95	101	101
COc1cc2c3cc1Oc1cc(ccc1O)C[C@@H]1c4c(cc(OC)c(O)c4Oc4ccc(cc4)C[C@@H]3N(C)CC2)CC[N+]1(C)C [tubocurarine]	> 10	> 10	> 10	> 10	> 10	0	0	0	0	0	108	88.9	107	98.4	118	107	102	103	102	91.3	99.5	94.5	94.6	94.6	97.6	93.5	115	102	108	111	93.5	97.2	98.4	99.9	106
OC(c1ccccc1)(c1ccccc1)C12CC[N+](CCOCc3ccccc3)(CC1)CC2 [umeclidinium]	> 10	> 10	> 10	> 10	> 10	0	0	0	0	0	97	96.1	92.9	96.2	101	95.1	102	107	101	92.8	96.6	99.5	101	97.1	106	105	97.1	94.1	104	97.8	95.8	99.2	98.7	99	99.9
CCCc1nc(C)c2c(=O)nc(-c3cc(S(=O)(=O)N4CCN(CC)CC4)ccc3OCC)[nH]n12 [vardenafil]	> 10	> 10	> 10	> 10	> 10	0	0	0	0	0	100	107	102	106	99.6	105	88.8	99.5	96.5	101	98.7	100	96.4	101	89.8	95.7	93	101	104	99.9	102	98.1	103	99.1	99.5
